The record followed here is patent US11136615B2 (PROMEGA CORPORATION, priority 2017, dated 2021).

Common to all, as to format: physicochemical
Series [1] in a line: Effect of ATT on luciferin stability (RP-HPLC). The note with it: luciferins 1.0 mM, cationic detergent buffers pH 6.0, ATT 2.0 mM, 60° C., FIG. 3. The protocol: Representative luciferins were reconstituted (at final concentration of 1.0 mM) in buffers containing various cationic detergents at pH 6.0, with or without ATT (Sigma, at a final concentration of 2.0 mM). The mixture was incubated at 60° C. Aliquots (20 μL) were taken out at various time points, diluted with H2O (180 μL), and analyzed by RP-HPLC. The percentages of the components were calculated based on UV absorbance at 330 nm.

The nature of series [2]: Effect of ATT on pro-luciferin stability (RP-HPLC). The note with it: 2-hydroxyethyl ester of luciferin methyl ether 1.0 mM, PBS pH 7.4, 5% DMSO, ATT 8.0 mM, 37° C., FIG. 4. The protocol:
A stock solution of this compound in DMSO was added to PBS buffer at pH 7.4 to reach a final concentration at 1.0 mM and 5% DMSO. The mixture was incubated at 37° C., with or without ATT (Sigma, at a final concentration of 8.0 mM). Aliquots (20 μL) were taken out at various time points, diluted with H2O (180 μL), and analyzed by RP-HPLC. The percentages of the components were calculated based on UV absorbance at 330 nm.

A short description of series [3]: Effect of ATT on pro-luciferin stability with or without TCEP (RP-HPLC). As to conditions: 2-hydroxyethyl ester of luciferin methyl ether 1.0 mM, PBS pH 7.4, 5% DMSO, ATT 8.0 mM, TCEP 10 mM, 37° C., FIG. 5. The protocol: ATT was also shown to be compatible with additives that are commonly used in bioluminescence systems. […] The mixture was incubated at 37° C., with or without ATT (Sigma, at a final concentration of 8.0 mM), and with or without TCEP (Thermo Scientific, at a final concentration of 10 mM).

Series [4] in a line: Thermal stability (T80) of Ultra-Glo™-based ATP detection reagent. As to conditions: 37° C. The protocol: (FIG. 6). T80 (the storage time during which the complete ATP detection reagent produced ≥80% of the light output from the freshly made reagent), a parameter reflecting reagent thermal stability, was improved by 1 fold at 37° C. after addition of ATT. In particular, the T80 value in the absence of ATT (0 mM) was 4 days, whereas the T80 value in the presence of ATT (3 mM) was 8 days (FIG. 6A). Further, the combination of dehydroluciferin and ATT as additives further improved the reagent stability, increasing the T80 value to 18 days (FIG. 6B, at 3 mM ATT with 0.3 mM corresponding dehydro-compound).

In the case of `Cc1n[nH]c(=S)[nH]c1=O` [ATT, 6-methyl-3-thioxo-3,4-dihydro-1,2,4-triazin-5(2H)-one], in series [1], the dehydroluciferin formation entry is “reduced” and the luciferin thermal stability result was “improved”. In series [2], the “decomposition of the pro-luciferin compound” value is on record as “slowed down” and the “formation of the corresponding dehydroluciferin derivative” value is “reduced”. In addition, the “stability of the pro-luciferin compound in the presence of TCEP” value in series [3] is “improved”. The “T80 (storage time with ≥80% of the light output of freshly made reagent)” value in series [4] (ATT 3 mM in complete ATP detection reagent, 4 days in the absence of ATT, FIG. 6A) amounted to 8 days. The “improvement of T80 after addition of ATT” value in series [4] (complete ATP detection reagent) is reported as 1 fold.
